Reference: US20190309272A1, “Genetically Modified Cell Lines Including a TP53 Modification and Methods of Use” (UNIVERSITY OF SOUTH CAROLINA, priority 2018, published 2019)
Structures can show the parent of a compound that is named as a salt. Where two headings read alike, the source gives them in different places.

How the values were obtained:
Type in all cases: cell-based, Human
[1] = test system: MCF7 TP53 KO 5.6 pool; experiment: Drug screening, resazurin, TP53 KO 5.6 pool
[2] = test system: MCF7 WT Parental pool; experiment: Drug screening, resazurin, MCF7 wild type parental pool
[3] = test system: MCF7 TP53 KO 3.4 pool; experiment: Drug screening, resazurin, TP53 KO 3.4 pool
[4] = test system: MCF7 PR WT G2; experiment: Drug treatment of single cell clone PR WT G2; details: ten day drug treatment; further: unit not given here
[5] = test system: MCF7 PR WT C7; experiment: Drug treatment of single cell clone PR WT C7; details: ten day drug treatment; further: unit not given here
[6] = test system: MCF7 PR WT A8; experiment: Drug treatment of single cell clone PR WT A8; details: ten day drug treatment; further: unit not given here
[7] = test system: MCF7 PR WT B8; experiment: Drug treatment of single cell clone PR WT B8; details: ten day drug treatment; further: unit not given here
[8] = ten-day drug treatment, 156.25 nM to 10 μM, resazurin fluorescence

Compound	TP53 KO 5.6 pool (AUC) [1, 8]	MCF7 WT Parental pool (AUC) [2, 8]	TP53 KO 3.4 pool (AUC) [3, 8]	further results
Cc1ccc(C(=O)Nc2ccc(CN3CCN(C)CC3)c(C(F)(F)F)c2)cc1C#Cc1cnc2cccnn12 [Ponatinib]				TP53 KO 5.6 pool (AUC) [1]: 3.632; MCF7 WT Parental pool (AUC) [2]: 3.312; TP53 KO 3.4 pool (AUC) [3]: 2.944
CC(C)Cn1cnc2c(N)nc3ccccc3c21 [Imiquimod]	9.449	9.496	9.359	
COc1cc2c(Nc3ccc(Br)cc3F)ncnc2cc1OCC1CCN(C)CC1 [Vandetanib]	3.022	2.871	2.831	
COc1cccc2c1C(=O)c1c(O)c3c(c(O)c1C2=O)C[C@@](O)(C(=O)CO)C[C@@H]3O[C@H]1C[C@H](N)[C@@H](O)[C@H](C)O1 [Epirubicin Hydrochloride]		0.8944		TP53 KO 5.6 pool (AUC) [1]: 1.019; TP53 KO 3.4 pool (AUC) [3]: 0.9399
COc1c2occc2cc2ccc(=O)oc12 [Methoxsalen]	10.48	8.476	10.56	
N[C@@H](Cc1ccc(N(CCCl)CCCl)cc1)C(=O)O [Melphalan Hydrochloride]	5.95	5.766	6.158	
CS(=O)(=O)OCCCCOS(C)(=O)=O [Busulfan]	8.834	9.118	9.336	
COc1ccc(C2=N[C@@H](c3ccc(Cl)cc3)[C@@H](c3ccc(Cl)cc3)N2C(=O)N2CCNC(=O)C2)c(OC(C)C)c1 [Nutlin3]		3.686		area under the curve (AUC) [4]: 1.011; area under the curve (AUC) ([2]; PR WT Pool, ten day drug treatment (Table 3)): 1.16; area under the curve (AUC) [5]: 1.042; area under the curve (AUC) [6]: 0.9589; area under the curve (AUC) [7]: 0.8828
O=C(c1ccc(OCCN2CCCCC2)cc1)c1c(-c2ccc(O)cc2)sc2cc(O)ccc12 [Raloxifene]	6.562	5.361	6.017	
COc1cc2nccc(Oc3ccc(NC(=O)C4(C(=O)Nc5ccc(F)cc5)CC4)cc3)c2cc1OC [Cabozantinib]	4.52	4.126	4.376	
S=c1nc[nH]c2nc[nH]c12 [Mercaptopurine]	5.636	6.103	5.941	
CNNCc1ccc(C(=O)NC(C)C)cc1 [Procarbazine Hydrochloride]	10.7	8.119	10.04	
C[C@@H](CN1CC(=O)NC(=O)C1)N1CC(=O)NC(=O)C1 [Dexrazoxane]	8.868	8.317	8.753	
C/C(=C\c1csc(C)n1)[C@@H]1C[C@@H]2O[C@]2(C)CCC[C@H](C)[C@H](O)[C@@H](C)C(=O)C(C)(C)[C@@H](O)CC(=O)N1 [Ixabepilone]	1.473	1.397	1.543	
CC(=O)O[C@@]12CO[C@@H]1C[C@H](O)[C@@]1(C)C(=O)[C@H](O)C3=C(C)[C@@H](OC(=O)[C@H](O)[C@@H](NC(=O)OC(C)(C)C)c4ccccc4)C[C@@](O)([C@@H](OC(=O)c4ccccc4)[C@H]21)C3(C)C [Docetaxel]	1.663	1.432	1.639	
Cc1nc(Nc2ncc(C(=O)Nc3c(C)cccc3Cl)s2)cc(N2CCN(CCO)CC2)n1 [Dasatinib]	4.43	4.282	4.014	
Oc1ncc(N(CCCl)CCCl)c(O)n1 [UracilMustard]				TP53 KO 5.6 pool (AUC) [1]: 9.516; MCF7 WT Parental pool (AUC) [2]: 9.331; TP53 KO 3.4 pool (AUC) [3]: 9.337
COc1cccc2c1C(=O)c1c(O)c3c(c(O)c1C2=O)C[C@@](O)(C(=O)CO)C[C@@H]3O[C@H]1C[C@H](N)[C@H](O)[C@H](C)O1 [Doxorubicin Hydrochloride]		0.9435		TP53 KO 5.6 pool (AUC) [1]: 1.009; TP53 KO 3.4 pool (AUC) [3]: 0.9013
